Measured values published in patent US6582734B1, “Antimicrobial composition useful for the treatment of bovine mastitis” (Ecolab Inc., priority 2000, dated 2003).

What was measured:
E. coli = test: Effect of various acids on antimicrobial activity of the base solution (no chlorine dioxide), E. coli; format: cell-based, Escherichia coli; conditions: used alone at 1%
Procedure: (§1) The effect of various acids on the antimicrobial activity of the base solution was measured. No chlorine dioxide was added to the compositions. Acids were added to each sample at a concentration of 1%. Example 4 had 1% heptanoic acid and Comparative Example D had 1% lactic acid. Examples 5 and 6 utilized blends of acids. The antimicrobial activity of each was measured and compared in the following Table III.

S. aureus = test: Effect of various acids on antimicrobial activity of the base solution (no chlorine dioxide), S. aureus; format: cell-based, Staphylococcus aureus; conditions: used alone at 1%
Procedure: as §1

[1] = system: Staphylococcus aureus (ATCC 6538); test: Antimicrobial effect of ClO2 compositions with/without heptanoic acid, S. aureus; format: cell-based; conditions: no secondary antimicrobial fatty acid added
Procedure: (§2) This experiment was used to determine what affect the addition of a fatty acid, the secondary antimicrobial agent, had on the effectiveness of the compositions in killing E. Coli and S. Aureus. The secondary fatty acid used was heptanoic acid at a level of 1% in examples 1, 2 and 3. The comparative examples, A, B and C, contained no fatty acid.
(§3) Three compositions were prepared from each base solution. Sodium chlorite was added in amounts that were sufficient to form compositions having 200 ppm, 300 ppm and 400 ppm ClO2. Six compositions were prepared in all.
(§4) The compositions were then tested for the antimicrobial effect against Staphylococcus aureus and Escherichia coli. The inoculum numbers in CFU/mL were 1.1×10^7 (ATCC 6538) and 1.0×10^8 (ATCC 11229). The test temperature was 25° C. and the solution pH was 5.5. The following Table II illustrates the results obtained.

[2] = system: Escherichia coli (ATCC 11229); test: Antimicrobial effect of ClO2 compositions with/without heptanoic acid, E. coli; format: cell-based; conditions: no secondary antimicrobial fatty acid added
Procedure: as §2, §3, §4

SMILES	effect against the microbes (E. coli), in words (E. coli)	effect against the microbes (S. aureus), in words (S. aureus)	concentration level of chlorine dioxide that provided an effective antimicrobial kill of S. Aureus [1] [ppm]	concentration level of chlorine dioxide that provided an effective antimicrobial kill of E. Coli [2] [ppm]
CC(O)C(=O)O (stereo not shown) [lactic acid]	does not have much of any effect	does not have much of any effect		
[O][Cl+][O-] [chlorine dioxide]			300	300
